Test results reported in patent publication US6545046B2, “Method for enhanced delivery of oxybutynin and compositions thereof” (Theramax Inc., priority 2000, dated 2003).
Read-outs that look alike come from different tables or passages of the source.

Legend:
[1] = In vivo nasal, oral and intravenous delivery of oxybutynin in rats; plasma levels by HPLC; conditions: rat; for bioavailability: read-out: Bioavailability relative to intravenous administration (100%)
Procedure: The nasal absorption of oxybutynin was studied using an in vivo technique described previously (1). Male Sprague-Dawley rats (body weight 250±25 gm) were used in these studies. Animals were fasted overnight prior to experimentation. Surgical procedures were performed under equithesin anesthesia (3 ml/kg, i.p.). An incision was made in the neck, and the trachea cannulated with polyethylene tubing (PE-260). A closed end tube was inserted through the esophagus to the posterior part of the nasal cavity to prevent drug from entering the esophagus. The nasopalatine passage was then closed with an adhesive agent to prevent drainage of the drug from the nasal cavity to the mouth.
Blood samples were collected from a cannula inserted into the femoral artery. For intravenous drug administration, the jugular vein was cannulated.
Solutions of oxybutynin hydrochloride (5 mg/kg/100 μl) were prepared in normal saline and administered through the right nostril using a microsyringe. For oral administration, rats received an aqueous solution of oxybutynin hydrochloride (5 mg/kg) administered by gavage tube. For intravenous (i.v.) administration, the same dose of oxybutynin was injected into the jugular vein (1 ml/kg body weight). Blood samples after oxybutynin administration were collected before and at […] after drug administration, centrifuged, and serum removed and stored (−70° C.) until analysis.
Differences in the plasma oxybutynin or N-desethyloxybutynin concentrations between i.v., oral, and nasal delivery routes were compared using the Student's t test.
Analysis of oxybutynin and its metabolites N-desethyloxybutynin were performed using HPLC as described by Buyse et al. (2). Extraction of standards for calibration curve and plasma samples were performed as described previously by Hughes et al. (3).
Oxybutynin and its metabolite (N-desethyloxybutynin) were analyzed using a reverse-phase column (25 cm×[…] I.D.) and eluted with mobile phase consisting of 50% acetonitrile in […] potassium phosphate buffer, pH 6.3. The mixture was filtered and degassed prior to use. The flow rate was 0.7 ml/min, and the effluent was monitored with a dual UV detector system at 210 nm.
All determinations were performed by calculating the area ratios of each compound to the internal standard. Unknown amounts were determined from calibration curves run with each day's unknown analysis.

[2] = as above; conditions: male, Sprague-Dawley, rat, mean ± SEM, read-out: AUC0-2 h
[3] = cited from earlier work
[4] = oral administration (Douchamps et al.); cited from earlier work

AUC(0-t) ([2]; inhaled or intranasal, intranasal oxybutynin 5 mg/kg) [ng·h/mL]	AUC(0-t) ([2]; oral oxybutynin 5 mg/kg) [ng·h/mL]	bioavailability ([1]; male, Sprague-Dawley, plasma, other: intranasal, intranasal 5 mg/kg) [%]	bioavailability ([1]; male, Sprague-Dawley, plasma, oral 5 mg/kg) [%]	tmax ([1]; male, Sprague-Dawley, plasma, inhaled or intranasal, 5 mg/kg, intranasal oxybutynin 5 mg/kg, read-out: tmax (converted)) [min]	tmax ([1]; male, Sprague-Dawley, plasma, po, 5 mg/kg, oral oxybutynin 5 mg/kg (solution in water), read-out: tmax (converted)) [min]	Increase in bioavailability after intranasal compared to oral administration ([1]; 5 mg/kg) [fold]	tmax ([1]; oral oxybutynin 5 mg/kg (solution in water)) [min]	SMILES	tmax ([1]; intranasal oxybutynin 5 mg/kg) [min]	Ratio N-desethyloxybutynin/Oxybutynin ([1]; intranasal oxybutynin 5 mg/kg, mean ± SEM, 4 rats)	Plasma concentration of N-desethyloxybutynin relative to parent compound oxybutynin ([1]; oral oxybutynin 5 mg/kg)	tmax ([1]; oral oxybutynin 5 mg/kg) [min]	Patient withdrawal ([3]; intravesical oxybutynin therapy, several studies)	Patients with adverse reactions requiring discontinuance of therapy ([3]; oral 5 mg 3 times daily, clinical studies)	Systemic bioavailability [4] [%]
								CCNCC#CCOC(=O)C(O)(c1ccccc1)C1CCCCC1 (stereo not drawn) [N-desethyloxybutynin]	96	~0.55	approximately 12 fold	66			
1770 ± 190	180 ± 53	90	~9	10	30 to 40	~10	40	CCN(CC)CC#CCOC(=O)C(O)(c1ccccc1)C1CCCCC1 (stereo not drawn) [oxybutynin, Benzeneacetic acid, a-cyclohexyl-a-hydroxy-4-(diethylamino)-2-butynyl ester]					up to 65%	about 20%	< 6
